This note sets out measurements from patent US5364966A, “Amide derivatives, their production processes and their compositions for the control of insect pests” (Sumitomo Chemical Company, Limited, priority 1991, dated 1994).

The test system of assay [1] is brown rice planthopper (Nilaparvata lugens). The assay can be described thus: Metamorphosis inhibitory activity against brown rice planthopper nymphs. The following applies: sprayed rice plants, 3rd instar nymphs, after 10 days. It counts as in vivo. The protocol:
Metamorphosis inhibitory activity against brown rice planthopper nymphs
An emulsifiable concentrate prepared according to Formulation Example 1 was diluted with water to make a predetermined concentration. The dilution was sprayed onto rice plants cultivated in polyethylene cups at a rate of 20 ml/2 pots on a turning table. After air-drying, the plants were infested with about ten 3rd instar nymphs of brown rice planthopper (Nilaparvata lugens). After 10 days, the number of normal adults was counted to obtain an emergence inhibitory rate.

The subject of assay [2] is cotton aphids (Aphis gossypil). The assay can be described thus: Reproduction inhibitory activity against cotton aphids. It counts as in vivo. The following applies: 10 ppm; sprayed potted cotton plants infested with 1st instar nymphs, one week after spraying. The protocol: Reproduction inhibitory activity against cotton aphids
An emulsifiable concentrate prepared according to Formulation Example 1 was diluted with water to make a predetermined concentration. The dilution was sprayed onto potted cotton plants (in a stage of 8-9 days after sowing) infested with 1st instar nymphs of cotton aphids (Aphis gossypil) at a rate of 30 ml/2 pots on a turning table. Before spraying and one week after spraying, the humber of nymphs and aduts was counted, and a reproduction inhibitory index was expressed by the following equation: [formula] wherein the judgement of activity is based on the following standard: A: less than 1 (excellent effect)

Where [3] appears, read: Nilaparvata lugens, 240 h, 0.05 ppm, read-out: Inhibitory rate (emergence inhibitory rate).
[4] abbreviates: Nilaparvata lugens, 240 h, 5 ppm, read-out: Inhibitory rate (emergence inhibitory rate).

Take `O=C(NCCOc1ccc(Oc2cccc(F)c2)cc1Cl)C1CC1` [compound 5, N-{2-[2-Chloro-4-(3-fluorophenoxy)phenoxy]ethyl}-cyclopropane carboxyamide]: the inhibition at 0.05 ppm in assay [1] (setting [3]) was found to be 100%. Moreover, the inhibition at 5 ppm in assay [1] (setting [4]) is 100%. On to `CCC(C)Oc1ccc(OCCNC(=O)C2CC2)c(Cl)c1` (stereo not drawn) [Compound No. 14, N-{2-[2-Chloro-4-(1-methylpropoxy)phenoxy]ethyl}-cyclopropane carboxyamide], for which, in assay [1] (setting [3]), the inhibition at 0.05 ppm was determined as 100%. The inhibition at 5 ppm in assay [1] (setting [4]) was determined as 100%. For `O=C(NCCOc1ccc(Oc2ccccc2)cc1)C1CC1` [A, reference compound], the inhibition at 5 ppm in assay [1] (setting [4]) was 0%.

For the compound `CC(C)COCc1ccc(OCCNC(=O)C2CC2)c(Cl)c1` [Compound No. 10, N-{2-[2-Chloro-4-(2-methylpropoxymethyl)phenoxy]ethyl}-cyclopropane carboxyamide], in assay [1] (setting [3]), the inhibition at 0.05 ppm came out at 100%. Moreover, the inhibition at 5 ppm in assay [1] (setting [4]) was 100%. On to `O=C(NCCOc1ccc(Oc2cccc(Cl)c2)cc1Cl)C1CC1` [compound 6, N-{2-[2-Chloro-4-(3-chlorophenoxy)phenoxy]ethyl}-cyclopropane carboxyamide], for which, in assay [1] (setting [3]), the inhibition at 0.05 ppm was determined as 100%. The inhibition at 5 ppm in assay [1] (setting [4]) came to 100%. `O=C(NCCOc1ccc(Cc2ccccc2)cc1Cl)C1CC1` [compound 13, N-[2-(4-Benzyl-2-chlorophenoxy)ethyl]-cyclopropane carboxyamide]: in assay [1] (setting [3]), the inhibition at 0.05 ppm stood at 100%. Also, the inhibition at 5 ppm in assay [1] (setting [4]) stood at 100%. As for `CCC(CC)Cc1ccc(OCCNC(=O)C2CC2)c(Cl)c1` [compound 12, N-{2-[2-Chloro-4-(2-ethylbutyl)phenoxy]ethyl}-cyclopropane carboxyamide], the inhibition at 0.05 ppm in assay [1] (setting [3]) worked out at 100%. Also, the inhibition at 5 ppm in assay [1] (setting [4]) is 100%. With `O=C(NCCOc1ccc(Oc2cc(F)cc(F)c2)cc1Cl)C1CC1` [Compound No. 1, N-{2-[2-Chloro-4-(3,5-difluorophenoxy)phenoxy]ethyl}-cyclopropane carboxyamide], the reproduction inhibitory index entry in assay [2] was “A (less than 1 (excellent effect))”. Further, the inhibition at 0.05 ppm in assay [1] (setting [3]) was 100%. Besides, the inhibition at 5 ppm in assay [1] (setting [4]) came out at 100%.

On to `Fc1cc(F)cc(Oc2ccc(OCCNC(=S)C3CC3)c(Cl)c2)c1` [compound 4, N-{2-[2-Chloro-4-(3,5-difluorophenoxy)phenoxy]ethyl}-cyclopropane thiocarboxyamide], for which the inhibition at 0.05 ppm in assay [1] (setting [3]) is 100%. The inhibition at 5 ppm in assay [1] (setting [4]) worked out at 100%.

Regarding `CCC(C)Oc1ccc(OCCNC(=S)C2CC2)c(Cl)c1` (stereo not drawn) [compound 11, N-{2-[2-Chloro-4-(1-methylpropoxy)phenoxy]ethyl}-cyclopropane thiocarboxyamide], the “Inhibitory rate (emergence inhibitory rate)” value in assay [1] (0.05 ppm) and in assay [1] (5 ppm) was 100% each time.

As to `S=C(NCCOc1ccc(Cc2ccccc2)cc1Cl)C1CC1` [Compound No. 3, N-[2-(4-Benzyl-2-chlorophenoxy)ethyl]-cyclopropane thiocarboxyamide], in assay [1] (setting [3]), the inhibition at 0.05 ppm came out at 100%. For the same compound, the inhibition at 5 ppm in assay [1] (setting [4]) amounted to 100%. For `O=C(NCCOc1ccc(Oc2ccc(F)cc2F)cc1Cl)C1CC1` [compound 7, N-{2-[2-Chloro-4-(2,4-difluorophenoxy)phenoxy]ethyl}-cyclopropane carboxyamide], the inhibition at 5 ppm in assay [1] (setting [4]) worked out at 100%. For `S=C(NCCOc1ccc(Oc2cccc(Cl)c2)cc1Cl)C1CC1` [compound 16, N-{2-[2-Chloro-4-(3-chlorophenoxy)phenoxy]ethyl}-cyclopropane thiocarboxyamide], the inhibition at 0.5 ppm in assay [1] (Nilaparvata lugens, 240 h, 0.5 ppm, read-out: Inhibitory rate (emergence inhibitory rate)) turned out to be 100%. For the compound `O=C(NCCOc1ccc(Oc2ccccc2)cc1Cl)C1CC1` [compound 15, N-[2-(2-Chloro-4-phenoxyphenoxy)ethyl]-cyclopropane carboxyamide], the inhibition at 5 ppm in assay [1] (setting [4]) stood at 100%. Take `O=C(NCCOc1cc(Oc2ccccc2)ccc1Cl)C1CC1` [compound 8, N-[2-(2-Chloro-5-phenoxyphenoxy)ethyl]-cyclopropane carboxyamide]: the inhibition at 0.05 ppm in assay [1] (setting [3]) was found to be 100%. Besides, the inhibition at 5 ppm in assay [1] (setting [4]) was 100%.
